Source: patent US10399966B2, “Compounds for treatment of trypanosomes and neurological pathogens and uses thereof” (The University of North Carolina at Chapel Hill, priority 2016, dated 2019)
Where two headings read alike, the source gives them in different places.

How the values were obtained:
[1] = Metabolic stability in human liver microsomes; assay type: in vitro ADME; conditions: for Human microsomes, percentage of compound remaining / half-life at 1.5 μM / Human microsomes t1/2: Table 12; for Human microsomes, percentage of compound remaining: after 60 min (where t1/2 > 60 min); for half-life at 1.5 μM / Human microsomes t1/2: 37° C., NADPH (1 mM), microsomes 0.5 mg/mL, test compounds 1.5 μM; for half-life at 1.5 μM: read-out: Human microsomes t1/2
Method: (§1) Metabolic stability was evaluated using liver microsomes derived from mouse and human sources. Microsomal incubations were carried out according to a protocol described previously (Wang et al., Antimicrob. Agents Chemother. 54:2507 (2010)) with modifications. Briefly, substrate stock solutions were prepared in DMSO and DMSO content was kept at 0.5% (v/v) in final incubations. Incubation mixtures ([…]), liver microsomes (0.5 mg/mL) from mouse (pool of 1000, CD-1 male mouse) or human (pool of 50, mixed gender) (XenoTech LLC, Lenexa, Kans.) in a phosphate buffer (100 mM, pH 7.4) containing 3.3 mM MgCl2. After a 5-minute pre-equilibration period at 37° C., reactions (in triplicate) were initiated by adding the NADPH cofactor (1 mM). For NADPH-independent reactions, the cofactor was replaced with water. Aliquots (10 μl) of the reaction mixtures were removed at 0, 15, 30, and 60 minutes and individually mixed with 200 μL of ice-cold acetonitrile containing internal standard. The mixtures were vortex-mixed, and precipitated protein was removed by centrifugation at 2,250×g for 15 min. The supernatant fractions were dried using a 96-well microplate evaporator (Apricot Designs Inc., Covina, Calif.) under N2 at 50° C. and reconstituted with 100 μL 50% methanol containing 0.1% trifluoroacetic acid before UPLC-MS/MS analysis. In vitro half-life (t1/2) was obtained by analyzing the substrate concentration vs. incubation time curve using the one-phase exponential decay model (GraphPad Prism® 5.0, San Diego, Calif.).

[2] = test system: human lymphocytes CRL-8155; assay: Cytotoxicity against CRL-8155 cells; conditions: human lymphoblasts; for EC50: read-out: CRL-8155 EC50, concentration required to inhibit growth by 50%; for EC90: read-out: CRL-8155 EC90, concentration required to inhibit growth by 90%
Method: The selectivity of each compound for the parasite over each of the two cell lines was calculated.

[3] = Mouse oral pharmacokinetics; assay type: in vivo
Method: […] Experiments were performed with groups of three mice per compound. Plasma was separated and extracted with acetonitrile for measurements of compound concentrations by liquid chromatography/tandem mass spectrometry.

human hepatocytes HepG2 = assay: Cytotoxicity against HepG2 cells; conditions: for EC50: Homo sapiens, HepG2, read-out: HepG2 EC50; for EC90: read-out: HepG2 EC90, concentration required to inhibit growth by 90%, human hepatocytes
Trypanosoma cruzi = assay: Efficacy against T. cruzi in vitro; assay type: cell-based; conditions: Trypanosoma cruzi, Table 10; for EC50: read-out: T.cruzi EC50; for EC90: read-out: T.cruzi EC90
[4] = Metabolic stability in mouse liver microsomes; assay type: in vitro ADME; conditions: for Mouse microsomes t1/2: Table 12, 37° C., NADPH (1 mM), microsomes 0.5 mg/mL, test compounds 1.5 μM
Method: as §1

T. b. brucei = assay: In vitro antitrypanosomal activity against T. brucei (growth inhibition); assay type: cell-based, Trypanosoma brucei; conditions: Trypanosoma brucei; for EC90: read-out: T. brucei EC90
How it was run: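 Dose-response EC50 against T. brucei parasites with 0.4% DMSO final, 48 h at 37 °C; parasite density quantified by ATP luminescence (CellTiter-Glo).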

[5] = Distribution between mouse plasma and brain (brain penetration, ip); assay type: in vivo; conditions: for Brain/plasma ratio / [compound]Brain / [compound]Plasma: Table 14, mice, single ip dose 5 mg/kg, one hour post-dose; for Kp at 1 h / concentration at 1 h: mouse; for Kp at 1 h: brain and plasma, read-out: Average brain/plasma ratio; for [compound]Brain / [compound]Plasma: ± SEM of 3 mice (compound 3: 6 mice)
How it was run: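 Mice (n=3) received a single 5 mg/kg ip dose in 7% Tween 80, 3% ethanol, 5% DMSO, 0.9% saline and were sacrificed 1 h post-dose. Plasma and acetonitrile brain homogenates analysed by LC/MS/MS; brain concentration corrected for 2.5% vasculature volume, assuming 1 g = 1 mL.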

[6] = both sexes, human, liver microsomes, pH 7.4
[7] = Table 7, read-out: T. brucei EC50
[8] = Table 11, read-out: T. b. brucei EC50
[9] = Table 12, read-out: T. b. brucei EC50
[10] = Table 9, read-out: T. brucei EC50
[11] = Table 8, groups of 3 mice (compound 3: ± SEM of 6 mice)
[12] = intraperitoneal, 5 mg/kg, Table 7, groups of 3 mice
[13] = brain, intraperitoneal, 5 mg/kg, Table 7, groups of 3 mice, read-out: Average [compound] brain
[14] = plasma, intraperitoneal, 5 mg/kg, Table 7, groups of 3 mice, read-out: Average [compound] plasma

O=C(Nc1ccc2sc(-c3ccc(F)c(F)c3)nc2c1)N1CCCC1 [Compound 2, 2-(3,4-Difluorophenyl)-5-(N-pyrrolidylamido)benzothiazole]
Human microsomes, percentage of compound remaining [1]: 66%
half-life at 3 μM ([1]; both sexes, human, liver microsomes, pH 7.4, Table 5, read-out: Microsome t1/2 (min) Human): > 60 min
half-life at 1.5 μM [1, 6]: > 60 min
EC50 [2]: 33900 nM
EC90 [2]: > 50000 nM
melting point: 221 to 223 °C
Mouse oral PK Tlast ([3]; Table 5): 480 min
Mouse oral PK Average AUC ([3]; Table 5, n = 3): 408 ± 95 (n = 3) min * μmol/L
AUC0 min-∞ ([3]; Table 13, mice, single 50 mg/kg oral gavage, vehicle Tween 80 (7%), EtOH (3%), DMSO (5%) in 0.9% NaCl, ± SEM of 3 mice): 443.3 ± 43.07 µM·min
Cmax ([3]; Table 13, mice, single 50 mg/kg oral gavage, vehicle Tween 80 (7%), EtOH (3%), DMSO (5%) in 0.9% NaCl, ± SEM of 3 mice, read-out: Cmax): 2010 ± 460 nM
Cmax ([3]; mouse, plasma, po, 50 mg/kg, Table 5, n = 3, read-out: Mouse oral PK Average Cmax): 2000 ± 820 nM
Tmax ([3]; mouse, plasma, po, 50 mg/kg, Table 5, read-out: Mouse oral PK Tmax (converted)): 60 min
EC50 (human hepatocytes HepG2): > 50000 nM
EC90 (human hepatocytes HepG2): > 50000 nM
EC50 (Trypanosoma cruzi): 339 nM
EC90 (Trypanosoma cruzi): 483 nM
Microsome t1/2 (min) Mouse ([4]; Table 5): 13.8 min
Mouse microsomes t1/2 [4]: 14 min
EC50 (T. b. brucei; [7]): 91.8 nM
EC50 (T. b. brucei; Table 8, read-out: T. brucei EC50): 91.8 nM
EC50 (T. b. brucei; [8]): 91.8 nM
EC50 (T. b. brucei; [9]): 91.8 nM
EC50 (T. b. brucei; [10]): 91.8 nM
EC90 (T. b. brucei; Table 9): 181 nM
Average [compound] brain [5, 11]: 4.25 ± 1.20 µM
Average [compound] plasma [5, 11]: 2.61 ± 1.26 µM
Brain/plasma ratio [5]: 1.81 ± 0.458
Kp at 1 h ([5]; intraperitoneal, 5 mg/kg, Table 5, mouse brain penetration (60 min), n = 3): 1.81 ± 0.793
Kp at 1 h [5, 12]: 1.81 ± 0.793
Kp at 1 h ([5]; intraperitoneal, 5 mg/kg, Table 8, groups of 3 mice): 1.81 ± 0.793
concentration at 1 h [5, 13]: 4250 ± 1200 nM
concentration at 1 h [5, 14]: 2610 ± 1260 nM
concentration at 60 min ([5]; plasma, intraperitoneal, 5 mg/kg, Table 5 r15, mouse brain penetration (60 min), n = 3): 2610 ± 1260 nM

O=C(Nc1ccc2sc(-c3cccc(F)c3)nc2c1)N1CCCC1 [Compound 6, 2-(3-Fluorophenyl)-5-(N-pyrrolidylamido)benzothiazole]
Human microsomes t1/2 [1]: 37 min
EC50 [2]: > 50000 nM
EC90 [2]: > 50000 nM
melting point: 232 to 233 °C
EC50 (human hepatocytes HepG2): > 50000 nM
EC90 (human hepatocytes HepG2): > 50000 nM
EC50 (Trypanosoma cruzi): 631 nM
EC90 (Trypanosoma cruzi): 697 nM
Mouse microsomes t1/2 [4]: 12 min
EC50 (T. b. brucei; [7]): 158 nM
EC50 (T. b. brucei; [8]): 158 nM
EC50 (T. b. brucei; [9]): 158 nM
EC50 (T. b. brucei; [10]): 158 nM
EC90 (T. b. brucei; Table 9): 391 nM
Brain/plasma ratio [5]: 1.01 ± 0.037
[compound]Brain [5]: 2.28 ± 0.532 µM
[compound]Plasma [5]: 2.22 ± 0.461 µM
Kp at 1 h [5, 12]: 1.01 ± 0.064
concentration at 1 h [5, 13]: 2280 ± 920 nM
concentration at 1 h [5, 14]: 2220 ± 798 nM

O=C(Nc1ccc2sc(-c3ccccc3)nc2c1)N1CCCC1 [Compound 7, 2-Phenyl-5-(N-pyrrolidylamido)benzothiazole]
Human microsomes t1/2 [1]: 30 min
EC50 [2]: > 50000 nM
EC90 [2]: > 50000 nM
melting point: 210 to 211 °C
EC50 (human hepatocytes HepG2): > 50000 nM
EC90 (human hepatocytes HepG2): > 50000 nM
EC50 (Trypanosoma cruzi): 564 nM
EC90 (Trypanosoma cruzi): 861 nM
Mouse microsomes t1/2 [4]: 18 min
EC50 (T. b. brucei; [7]): 325 nM
EC50 (T. b. brucei; [8]): 325 nM
EC50 (T. b. brucei; [9]): 325 nM
EC50 (T. b. brucei; [10]): 325 nM
EC90 (T. b. brucei; Table 9): 817 nM
Brain/plasma ratio [5]: 1.24 ± 0.157
[compound]Brain [5]: 4.24 ± 0.698 µM
[compound]Plasma [5]: 3.403 ± 0.328 µM
Kp at 1 h [5, 12]: 1.24 ± 0.272
concentration at 1 h [5, 13]: 4240 ± 1210 nM
concentration at 1 h [5, 14]: 3400 ± 569 nM

O=C(Nc1ccc2oc(-c3ccccc3)nc2c1)c1ccccc1 [Compound 15, 5-Benzamido-2-phenylbenzoxazole]
Human microsomes t1/2 [1]: 60 min
Mouse microsomes t1/2 [4]: 17 min
EC50 (T. b. brucei; read-out: T. b. brucei EC50): > 10000 nM
EC50 (T. b. brucei; read-out: T. brucei EC50): > 10000 nM
EC90 (T. b. brucei): > 10000 nM

O=C(Nc1ccc2oc(-c3ccccc3)nc2c1)N1CCCCC1 [Compound 16, 2-Phenyl-5-N-piperidylamidobenzoxazole]
Human microsomes, percentage of compound remaining [1]: 77%
half-life at 1.5 μM [1, 6]: > 60 min
melting point: 207 to 209 °C
Mouse microsomes t1/2 [4]: 11 min
EC50 (T. b. brucei; [9]): 2800 nM
EC50 (T. b. brucei; [10]): 2800 nM
EC90 (T. b. brucei; Table 9): 9300 nM

O=C(Nc1ccc2sc(-c3ccccc3)nc2c1)c1ccccc1 [Compound 17, 5-Benzamido-2-phenylbenzothiazole]
Human microsomes, percentage of compound remaining [1]: 53%
half-life at 1.5 μM [1, 6]: > 60 min
Mouse microsomes t1/2 [4]: 50 min
EC50 (T. b. brucei; [9]): 2380 nM
EC50 (T. b. brucei; [10]): 2380 nM
EC90 (T. b. brucei; Table 9): 7740 nM

O=C(Nc1ccc2sc(-c3ccccc3)nc2c1)N1CCCCC1 [Compound 23, 2-Phenyl-5-(N-piperidylamido)benzothiazole]
Human microsomes, percentage of compound remaining [1]: 62%
half-life at 1.5 μM [1, 6]: > 60 min
EC50 [2]: > 50000 nM
EC90 [2]: > 50000 nM
melting point: 230 to 232 °C
EC50 (human hepatocytes HepG2): > 50000 nM
EC90 (human hepatocytes HepG2): > 50000 nM
EC50 (Trypanosoma cruzi): 826 nM
EC90 (Trypanosoma cruzi): 1070 nM
Mouse microsomes t1/2 [4]: 17 min
EC50 (T. b. brucei; [8]): 366 nM
EC50 (T. b. brucei; [9]): 366 nM
EC50 (T. b. brucei; [10]): 366 nM
EC90 (T. b. brucei; Table 9): 809 nM

O=C(Nc1ccc2sc(-c3cccc(F)c3)nc2c1)N1CCCCC1 [Compound 29, 2-(3-Fluorophenyl)-5-(N-piperidylamido)benzothiazole]
Human microsomes t1/2 [1]: 8.9 min
EC50 [2]: > 50000 nM
EC90 [2]: > 50000 nM
melting point: 216 to 217 °C
EC50 (human hepatocytes HepG2): > 50000 nM
EC90 (human hepatocytes HepG2): > 50000 nM
EC50 (Trypanosoma cruzi): 320 nM
EC90 (Trypanosoma cruzi): 503 nM
Mouse microsomes t1/2 [4]: 11 min
EC50 (T. b. brucei; [8]): 174 nM
EC50 (T. b. brucei; [9]): 174 nM
EC50 (T. b. brucei; [10]): 174 nM
EC90 (T. b. brucei; Table 9): 602 nM
